From patent US12493040B2, “Cancer detection method using sense of smell of nematode” (HIROTSU BIO SCIENCE INC., priority 2013, dated 2025)

Legend:
nematodes (C. elegans) [1] = settings: sri-14 mutant; 4M NaCl
Text: The present inventor has used 4 M NaCl for osmotic stimulus, and has assayed an osmotic pressure avoidance behavior, as previously reported (38).

AWC neurons = assay: Calcium imaging (YC3.60, microfluidic device) of AWC neurons to diacetyl; assay type: in vivo, Caenorhabditis elegans; settings: wild-type; removal of high concentration of diacetyl (10^−3 diluted)
Protocol: (§1) In order to monitor the response of the AWA, AWB, AWC and ASH neurons, the present inventor has produced strains expressing YC3.60, using odr-10, str-1, odr-3, and sra-6 promoters (11, 15, 20, and 45), respectively. As previously reported (33, 46, 47), calcium imaging was carried out using a microfluidic device. In an experiment using such a microfluidic device, a nematode was captured by a microchannel such that the nose of the nematode was exposed to running water containing a solution of diacetyl [10^−5-diluted (low concentration) and 10^−3-diluted (high concentration)], or a solution with no smell, and thus, each nematode was immobilized. The room temperature was set from 20° C. to 23° C. The fluorescence image of YC3.60 was taken using Zeiss Axioplan 2 comprising 40× objective lens and a 3CCD digital camera (C7780, Hamamatsu Photonics). All images were recovered at an exposure time of 200 ms. The time stacks of AWA, AWB, AWC, and ASH cell bodies were captured, and thereafter, using AquaCosmos software (ver. 2.6, Hamamatsu Photonics), the emission ratio between a yellow fluorescent protein (YFP) and a cyan fluorescent protein (CFP) was analyzed. This ratio was calculated as YEP intensity/CFP intensity (R), and the average ratio in 10-second window (−10 to 0 seconds) was set as RO.

[2] = test system: RNAi-treated eri-1 (mg366) nematodes; assay: RNAi screening of olfactory receptor genes: chemotaxis assay of RNAi-treated nematodes to odorants; assay type: in vivo, Caenorhabditis elegans; settings: for chemotaxis index: low concentration of attractant
Protocol: The RNAi assay was carried out by performing an RNAi method involving the feeding (feeding RNAi method) of eri-1 (mg366) (19), using an Ahringer library (37).
(§2) Nine adult eri-1 mutants were placed on an NGM plate containing isopropyl 1-D-1-thiogalactopyranoside (0.19 g/L), ampicillin (60 mg/L), and Escherichia coli (E. coli), and were then cultured for 4 days. Subsequently, the adult worms were used in a chemotaxis assay. The chemotaxis assay was carried out as previously reported (6, 17). In the chemotaxis assay, the present inventor has used 30 to 50 worms in each experiment in which 1 μl of 10^−3- or 10^−4-diluted odorant (low concentration), or 1 and 5 μl of undiluted odorants (high concentration) were used.
The z score and a control value in each single test from 2SD were calculated in all days (Table 3) or every day. The z score was used as a threshold indicating a great difference (−1.96 and 1.96, P<0.05). […] Accordingly, the present inventor has used the z score±1 (−0.96 and 0.96, P<0.33) as a weaker threshold.

ASH neurons = assay: Calcium imaging (YC3.60, microfluidic device) of ASH neurons to diacetyl; assay type: in vivo, Caenorhabditis elegans
Protocol: as §1

AWB neurons = assay: Calcium imaging (YC3.60, microfluidic device) of AWB neurons to diacetyl; assay type: in vivo, Caenorhabditis elegans
Protocol: as §1

AWA neurons = assay: Calcium imaging (YC3.60, microfluidic device) of AWA neurons to diacetyl; assay type: in vivo, Caenorhabditis elegans
Protocol: as §1

nematodes (C. elegans) [3] = assay: Chemotaxis assay of wild-type, mutant, neuron-specific knockdown, neuron-ablated or interneuron-inhibited nematodes to odorants; assay type: in vivo, Caenorhabditis elegans
Protocol: Except for the eri-1 mutant that was cultured with Escherichia coli (E. coli) OP50, the nematodes (C. elegans) were cultured at 20° C. under standard conditions in a nematode growth medium (NGM) plate (36) comprising Escherichia coli NA22 as a food source. The used wild-type nematodes were of a Bristol N2 strain. As other nematode strains, GR1373: eri-1 (mg366), VC2123: sri-14 (ok2865), CX3410: odr-10 (ky225), and MT7929: unc-13 (e51) were used.
as §2
A gene to knock down the function of sri-14 in specific neurons was constructed, as previously reported (24). The target region of sri-14 (a 1.6-kb genome sequence) was amplified using the following two primers: […]
The gene expression of ASH was carried out using a sra-6 (20) promoter, and that of AWC was carried out using ceh-36 (39) and srd-17 promoters.
The present inventor has used mouse caspase-1 (mCasp1) for ablation of the AWA, AWB, AWC and ASH neurons. mCasp1 was each expressed by odr-10 (11), str-1 (15), ceh-36 (39), and sra-6 (20) promoters, respectively. Moreover, for inhibition of interneurons, unc-103 (gf) was used. The AIA-, AIB-, AIY-, or AIZ-specific expression of the unc-103 (gf) was carried out using a gcy-28.d (29), npr-9 (40), ttx-3 (41, 42), or lin-11 (43, 44) promoter, respectively.
Total RNA, which had been isolated using PureLink RNA Minikit (Ambion), was converted to cDNA by ReverTra Ace qPCR master mix using gDNA Remover (Toyobo) in accordance with the instructions made by the manufacturer. The sri-14 cDNA was amplified using the following two primers, was then digested with Nhe I and Kpn I, and was then inserted into a pPD-DEST vector (Invitrogen): […]

[4] = high concentration of diacetyl (10^−3 diluted)
[5] = low (10^−5 diluted) and high (10^−3 diluted) concentration of diacetyl
[6] = low concentration of diacetyl (10^−5 diluted)
[7] = high concentration of diacetyl (5 μl, undiluted)
[8] = unc-103 (gf) expression, high concentration of diacetyl (5 μl, undiluted)

With `[Cl-].[Na+]` [NaCl] as the molecule, how does the “avoidance behavior to high osmotic stimulus” value (nematodes (C. elegans) [1]) read?
Its value is “normal avoidance behavior”.

What does the source list for `CC(=O)C(C)=O` [diacetyl]?
Ca2+ response of AWC neurons after removal of diacetyl (AWC neurons): a Ca2+ response occurs; avoidance from diacetyl after RNAi of sri-14 ([2]; RNAi of sri-14, high concentration of diacetyl (5 μl, undiluted)): significantly strong defect in the avoidance; response (chemotaxis) to diacetyl after knockdown of odr-10 ([2]; eri-1 mutant, RNAi of odr-10, low concentration (10; diluted) of diacetyl): specific defect in the response; avoidance behavior from diacetyl after RNAi of srh-25, srh-79, srh-216 or srh-281 ([2]; high concentration of diacetyl (5 μl, undiluted), repeated assay): significant and reproducible defect; Ca2+ response of ASH neurons, odr-10 mutant (ASH neurons; [4]): normally induced; Ca2+ response of ASH neurons, sri-14 mutant (ASH neurons; [4]): significantly reduced; Ca2+ response of ASH, ASH-specific knockdown of sri-14 in wild-type nematodes (ASH neurons; [4]): reduced; calcium response of ASH neurons, AWA-ablated nematodes (ASH neurons; [4]): enhances the calcium response; defect in ASH response of sri-14 mutant with ASH-specific expression of wild-type sri-14 (ASH neurons; [4]): rescued; Ca2+ response of ASH neurons, wild-type nematodes (ASH neurons; [5]): Ca2+ response only to a high concentration of diacetyl was detected; calcium response of ASH neurons, unc-13 mutants vs wild type (ASH neurons; unc-13(e51), high concentration of diacetyl (10^−3 diluted)): significantly larger; Ca2+ response of wild-type AWB neurons after removal of the smell (AWB neurons; [5]): slight Ca2+ response; Ca2+ response of AWB neurons with ectopic expression of SRI-14 (AWB neurons; removal of high concentration of diacetyl (10^−3 diluted), vs wild-type AWB): significantly enhanced; Ca2+ response of AWB neurons with ectopic expression of SRI-14 (AWB neurons; removal of low concentration of diacetyl (10^−5 diluted)): did not change the response; calcium response of AWA neurons, odr-10 mutants and wild-type nematodes (AWA neurons; [4]): normally responded; calcium response of AWA neurons, odr-10 mutants (AWA neurons; [6]): did not respond; calcium response of AWA neurons, wild-type nematodes or sri-14 mutants (AWA neurons; [6]): intracellular calcium was increased; response of AWA and ASH double-ablated nematodes (nematodes (C. elegans) [3]; high concentration of diacetyl): more severe defect; avoidance behavior of ASH-ablated nematodes (nematodes (C. elegans) [3]; [7]): avoidance behavior was inhibited; avoidance defect of sri-14 mutant with ASH-specific expression of sri-14 cDNA (nematodes (C. elegans) [3]; [7]): rescued; avoidance defect of sri-14 mutant with AWA-, AWB- or AWC-specific expression of sri-14 cDNA (nematodes (C. elegans) [3]; [7]): partially rescued or was not rescued; avoidance of AWA-ablated nematodes (nematodes (C. elegans) [3]; [7]): decrease in the avoidance; chemotaxis of AWB- or AWC-ablated nematodes (nematodes (C. elegans) [3]; [7]): did not exhibit a defect in the chemotaxis; attraction of AWA-ablated nematodes (nematodes (C. elegans) [3]; low concentration of diacetyl (10^−3 diluted)): decrease in the attraction; attraction of nematodes with interneurons inhibited (nematodes (C. elegans) [3]; low concentration of diacetyl (10^−3 diluted), except for MY): not influenced; chemotaxis of odr-10 mutant (nematodes (C. elegans) [3]; high concentration of diacetyl): normal chemotaxis; chemotaxis of odr-10 mutant (nematodes (C. elegans) [3]; low concentration of diacetyl): reduced attraction; avoidance response of sri-14 mutant (nematodes (C. elegans) [3]; sri-14 (ok2865) mutant, high concentration of diacetyl): defect in the avoidance response; reaction of sri-14 loss-of-function mutant (nematodes (C. elegans) [3]; sri-14 mutant, low concentration of diacetyl): normal reaction; response of nematodes with AIA, AIY or AIZ interneurons inhibited (nematodes (C. elegans) [3]; [8]): from an avoidance response to an attraction response; response of nematodes with AIB interneurons inhibited (nematodes (C. elegans) [3]; [8]): attenuated the avoidance response; avoidance from diacetyl, ASH-specific knockdown of sri-14 (nematodes (C. elegans) [3]; wild-type nematode, ASH-specific RNAi of sri-14, high concentration of diacetyl (5 μl, undiluted)): defect in the avoidance; avoidance from diacetyl, AWC-specific knockdown of sri-14 (nematodes (C. elegans) [3]; wild-type nematode, AWC-specific RNAi of sri-14, high concentration of diacetyl (5 μl, undiluted)): abnormality was not observed

Which results are given for `CC(C)CCO` [isoamyl alcohol]?
chemotaxis index ([2]; srh-10 RNAi-treated nematodes): −0.12; chemotaxis index ([2]; srh-11 RNAi-treated nematodes): 0.05; chemotaxis index ([2]; srh-15 RNAi-treated nematodes): 0.59; chemotaxis index ([2]; srh-16 RNAi-treated nematodes): 0.86; chemotaxis index ([2]; srh-18 RNAi-treated nematodes): 0.67; chemotaxis index ([2]; srh-19 RNAi-treated nematodes): 0.67; chemotaxis index ([2]; srh-22 RNAi-treated nematodes): 0.58; chemotaxis index ([2]; srh-23 RNAi-treated nematodes): 0.54; chemotaxis index ([2]; srh-24 RNAi-treated nematodes): 0.58; chemotaxis index ([2]; srh-214 RNAi-treated nematodes): 0.63; chemotaxis index ([2]; srh-216 RNAi-treated nematodes): 0.76; chemotaxis index ([2]; srh-217 RNAi-treated nematodes): −0.12; chemotaxis index ([2]; srh-220 RNAi-treated nematodes): 0.81; chemotaxis index ([2]; srh-222 RNAi-treated nematodes): 0.80; chemotaxis index ([2]; srh-223 RNAi-treated nematodes): 0.51; chemotaxis index ([2]; srh-227 RNAi-treated nematodes): 0.43; chemotaxis index ([2]; srh-229 RNAi-treated nematodes): −0.20; chemotaxis index ([2]; srh-233 RNAi-treated nematodes): 0.36; chemotaxis index ([2]; srh-235 RNAi-treated nematodes): 0.64; chemotaxis index ([2]; srh-236 RNAi-treated nematodes): 0.41; chemotaxis index ([2]; srh-239 RNAi-treated nematodes): 0.57; chemotaxis index ([2]; srh-241 RNAi-treated nematodes): 0.63; chemotaxis index ([2]; srh-243 RNAi-treated nematodes): 0.46; chemotaxis index ([2]; srh-244 RNAi-treated nematodes): 0.74; chemotaxis index ([2]; srh-247 RNAi-treated nematodes): 0.60; chemotaxis index ([2]; srh-250 RNAi-treated nematodes): 0.47; chemotaxis index ([2]; srh-251 RNAi-treated nematodes): 0.75; chemotaxis index ([2]; srh-252 RNAi-treated nematodes): 0.59; chemotaxis index ([2]; srh-258 RNAi-treated nematodes): 0.78; chemotaxis index ([2]; srh-261 RNAi-treated nematodes): 0.51; chemotaxis index ([2]; srh-264 RNAi-treated nematodes): 0.61; chemotaxis index ([2]; srh-266 RNAi-treated nematodes): 0.25; chemotaxis index ([2]; srh-274 RNAi-treated nematodes): 0.44; chemotaxis index ([2]; srh-275 RNAi-treated nematodes): 0.39; chemotaxis index ([2]; srh-276 RNAi-treated nematodes): 0.58; chemotaxis index ([2]; srh-277 RNAi-treated nematodes): 0.54; chemotaxis index ([2]; srh-279 RNAi-treated nematodes): 0.53; chemotaxis index ([2]; srh-281 RNAi-treated nematodes): 0.51; chemotaxis index ([2]; srh-282 RNAi-treated nematodes): 0.52; chemotaxis index ([2]; srh-283 RNAi-treated nematodes): 0.34; chemotaxis index ([2]; srh-284 RNAi-treated nematodes): 0.73; chemotaxis index ([2]; srh-291 RNAi-treated nematodes): 0.80; chemotaxis index ([2]; srh-292 RNAi-treated nematodes): 0.43; chemotaxis index ([2]; srh-293 RNAi-treated nematodes): 0.71; chemotaxis index ([2]; srh-297 RNAi-treated nematodes): 0.42; chemotaxis index ([2]; srh-298 RNAi-treated nematodes): 0.68; chemotaxis index ([2]; srh-308 RNAi-treated nematodes): 0.56
